Source: paper PMC8008393, “Preclinical Lead Optimization of a 1,2,4-Triazole Based Tankyrase Inhibitor” (Journal of Medicinal Chemistry, 2020)
pIC50: −log10 of the molar value. ≈ marks a conversion by molar mass, not a printed value. Like-named read-outs stand apart in the source and are kept apart here. Values belong to the molecule of their own block, whether it stands above or below them.

Assays:
[1] = test system: WNT/β-catenin signaling pathway reporter in HEK293 cells; experiment: cells; type: cell-based, human; details: for activity in words: assay not given (TNKS2 / HEK293), Supplementary Table 1; for pIC50: Homo sapiens, HEK293, read-out: HEK293 IC50, WNT/β-catenin reporter
Method: (§1) In the first round of the optimization campaign, we prepared single-point modifications changing any of the four regions in 1 (Figure 1) while leaving the other regions constant. In the following stages of the optimization campaign, additional East, West, and South moieties were also utilized, combining the best structural elements of the first single-point modification round. For the optimization, in vitro ADME properties and solubility of selected compounds were measured.

[2] = microsomal stability, mouse liver microsomes; type: in vitro ADME; details: for half-life at 1 μM: pH 7.4, read-out: Microsomal stability t1/2 mouse
Method: (§2) Test compounds in DMSO (10 mM) were further diluted to 100 μM in acetonitrile. Human or mouse liver microsomes (BioIVT) from selected species are incubated in duplicate with the test compound at a final concentration of 1 μM in 0.1 M potassium phosphate buffer (pH 7.4) containing 3.3 mM MgCl2, 0.5 mg/mL microsomal protein, in the presence or absence of NADPH (1 mM). Incubations were performed at 37 °C in a total volume of 500 μL. Control incubations with reference substances were included for each experiment. At t = 0, 5, 15, 30, 45 min, an amount of 50 μL of the incubation mixture was transferred to a quench plate containing acetonitrile and internal standard (200 nM labetalol) cooled at 4 °C. After the last time point, the quench plates are mixed thoroughly and centrifuged for 15 min at 3700 rpm and 10 °C (Eppendorf 5804R). The supernatant was transferred to a 96-well plate and analyzed by LCMS (Vanquish Horizon UHPLC equipped with a diode array detector coupled to a Q Exactive focus hybrid quadrupole-Orbitrap mass spectrometer). The metabolic stability is evaluated by plotting the natural logarithm of the percentage test compound remaining versus time and performing linear regression.

[3] = in vivo
Method: as §1
The pharmacokinetical analyses in mice were performed according to the standard protocols of Medicilon and, as previously described,[9] using 3 animals per treatment group using 5% DMSO, 50% PEG400 (both Sigma-Aldrich) and 45% saline as vehicle.

[4] = test system: PARPs/ARTDs ARTD1/2/3/4/7/8/10/12; experiment: PARP/ARTD family selectivity, biochemical assays
[5] = hepatocyte stability, human; type: in vitro ADME; details: hepatocytes
Method: (§3) Kinetic solubility assay was performed following standard protocols of Mercachem. The following assays were performed according to the standard protocols of Cyprotex: Caco-2 permeability, dog microsomal stability, hepatocyte stability (human, mouse, dog, rat, and cynomolgus), CYP3A4 inhibition, mouse plasma stability, mouse plasma protein binding, and Ames test.

[6] = Caco-2 permeability; type: in vitro ADME; details: human
Method: as §3

[7] = microsomal stability, human liver microsomes; type: in vitro ADME; details: for half-life at 1 μM: pH 7.4, read-out: Microsomal stability t1/2 human
Method: as §2

[8] = molecular target: T1, CYP3A4 (Homo sapiens, UniProt P08684); experiment: CYP3A4 inhibition; type: in vitro ADME
T1 construct: Cyprotex
T1 sequence (P08684 whole entry, species assumed): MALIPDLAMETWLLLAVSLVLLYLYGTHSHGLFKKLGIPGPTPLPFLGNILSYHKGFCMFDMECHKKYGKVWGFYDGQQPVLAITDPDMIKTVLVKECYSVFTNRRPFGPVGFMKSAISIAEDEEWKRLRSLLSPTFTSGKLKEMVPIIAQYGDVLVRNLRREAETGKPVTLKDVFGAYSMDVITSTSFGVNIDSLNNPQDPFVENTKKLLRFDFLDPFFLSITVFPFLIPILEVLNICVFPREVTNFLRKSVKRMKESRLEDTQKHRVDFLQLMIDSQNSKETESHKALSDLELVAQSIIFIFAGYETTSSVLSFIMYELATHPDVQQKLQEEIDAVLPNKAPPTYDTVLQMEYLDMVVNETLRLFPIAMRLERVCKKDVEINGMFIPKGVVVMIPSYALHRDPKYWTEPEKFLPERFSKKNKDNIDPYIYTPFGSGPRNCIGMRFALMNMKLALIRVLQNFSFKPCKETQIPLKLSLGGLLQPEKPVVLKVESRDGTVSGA
Method: as §3

[9] = kinetic solubility assay; type: physicochemical; details: for solubility: Table 2
Method: as §3

[10] = molecular target: T2, TNKS2 (Homo sapiens, UniProt Q9H2K2); type: biochemical
T2 construct: TNKS2 (residues 873–1162); made in house
T2 sequence (Q9H2K2 873-1162): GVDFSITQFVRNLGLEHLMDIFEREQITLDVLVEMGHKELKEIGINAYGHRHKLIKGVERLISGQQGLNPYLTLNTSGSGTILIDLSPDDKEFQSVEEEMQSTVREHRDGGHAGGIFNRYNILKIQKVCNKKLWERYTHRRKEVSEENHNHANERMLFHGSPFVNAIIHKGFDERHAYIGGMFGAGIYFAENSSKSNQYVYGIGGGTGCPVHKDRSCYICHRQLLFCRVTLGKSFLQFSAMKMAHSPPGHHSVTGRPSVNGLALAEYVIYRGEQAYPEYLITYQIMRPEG
Method: as §1
Human tankyrase active constructs for TNKS1 (residues 1030–1317) and TNKS2 (residues 873–1162) and other ARTD/PARP enzymes used in the assays were expressed and purified as previously described.[34],[35] The enzymatic assay is based on the measurement of unreacted NAD^+, which is chemically converted into a fluorescent compound.[36] The fluorescence intensity was measured with excitation/emission wavelengths of 372 and 444 nm, respectively, using Tecan Infinity M1000 Pro. The compounds were prepared in half log dilution series and the reactions were done in quadruplicates with protein and compound controls to exclude the effect of compound autofluorescence. All reactions were done at ambient temperature. 20 nM TNKS1 or 5 nM TNKS2 was incubated for 20 h in assay buffer (50 mM BTP, pH 7.0, 0.5 mM TCEP, 0.01% Triton-X100) with compound and 10 μM or 500 nM NAD^+, respectively. […] For ARTD3/PARP3, 20 nM enzyme was incubated for 4 h with compound and 500 nM NAD^+ in assay buffer (50 mM PIPES, pH 7.0, 5 mM MgCl2, 20 μg/mL activated DNA, 0.2 mg/mL BSA). The assay conditions for the other ARTD enzymes were used as previously described.[37]

[11] = A-B, read-out: Caco-2 permeability Papp AB
[12] = pH 7.4, read-out: Kinetic Solubility pH 7.4

Molecule: 3-(trans-3-(4-(2-Chlorophenyl)-5-(pyrimidin-4-yl)-4H-1,2,4-triazol-3-yl)cyclobutyl)isoindolin-1-one [compound 51]
activity in words [1]: activity was restored

Molecule: N#Cc1ccc2c(c1)[nH]c(=O)n2[C@H]1C[C@H](c2nnc(-c3ccncn3)n2-c2ccccc2Cl)C1 [compound 1]
microsomal CLint at 1 μM ([2]; pH 7.4): 204 µL/min/mg
half-life at 1 μM [2]: 7 min
CL ([3]; mouse po 5 mg/kg): 567 mL/min/kg
Vd ([3]; mouse po 5 mg/kg): 74.2 L/kg
T1/2 ([3]; mouse po 5 mg/kg, 5 mg/kg): 90 min
AUC(0-inf) ([3]; mouse, in vivo, po, 5 mg/kg): 147 ng·h/mL
AUC(0-t) ([3]; mouse, in vivo, po, 5 mg/kg): 145 ng·h/mL
Cmax ([3]; mouse, in vivo, po, 5 mg/kg): 124 ng/mL
MRT inf ([3]; mouse, in vivo, po, 5 mg/kg): 96.6 min
Tmax ([3]; mouse, in vivo, po, 5 mg/kg): 15 min
bioavailability ([3]; mouse, in vivo, po, 5 mg/kg): 47%
half-life ([3]; mouse, in vivo, po, 5 mg/kg, T1/2, mouse po 5 mg/kg): 90.6 min
pIC50 [4]: < 5.00
hepatocyte CLint [5]: 9.8 µL/min/1e6 cells
Papp A→B [6, 11]: 10 ×10⁻⁶ cm/s
microsomal CLint at 1 μM ([7]; pH 7.4): 242 µL/min/mg
half-life at 1 μM [7]: 6 min
pIC50 [8]: 5.90
solubility kinetic ([9]; PBS, pH = 7): 12 µM (≈ 5.63 µg/mL)
solubility kinetic [9, 12]: 12 µM (≈ 5.63 µg/mL)

Molecule: Cn1c(=O)n([C@H]2C[C@H](c3nnc(-c4ccncn4)n3-c3ccccc3Cl)C2)c2ccc(C#N)cc21 [compound 17]
pIC50 [10]: 7.47
pIC50 [1]: 6.94

Molecule: N#Cc1ccc2c(c1)oc(=O)n2[C@H]1C[C@H](c2nnc(-c3ccncn3)n2-c2ccccc2Cl)C1 [compound 18, 3-(trans-3-(4-(2-Chlorophenyl)-5-(pyrimidin-4-yl)-4H-1,2,4-triazol-3-yl)cyclobutyl)-2-oxo-2,3-dihydrobenzo[d]oxazole-6-carbonitrile]
pIC50 [10]: 7.32
pIC50 [1]: 6.56

Molecule: N#Cc1ccc2c(c1)[nH]c(=O)n2C12CC(c3nnc(-c4ccncn4)n3-c3ccccc3Cl)(C1)C2 [compound 19, 1-(3-(4-(2-Chlorophenyl)-5-(pyrimidin-4-yl)-4H-1,2,4-triazol-3-yl)bicyclo[1.1.1]pentan-1-yl)-2-oxo-2,3-dihydro-1H-benzo[d]imidazole-5-carbonitrile]
microsomal CLint at 0.75 h, 1 µM ([2]; pH 7.4): 256 µL/min/mg
half-life at 1 μM [2]: 5 min
efflux ratio at 2 h, 10 µM [6]: 5.3
Papp A→B at 2 h, 10 µM [6, 11]: 5 ×10⁻⁶ cm/s
pIC50 [10]: 8.44
pIC50 [1]: 8.33
microsomal CLint at 0.75 h, 1 µM ([7]; pH 7.4): 200 µL/min/mg
half-life at 1 μM [7]: 7 min
solubility kinetic [9, 12]: 1.5 µM (≈ 0.721 µg/mL)

solubility ([9]; pH 7.4): > 80 µM
Molecule: O=C(N[C@H]1C[C@H](c2nnc(-c3ccccn3)n2-c2ccccc2F)C1)c1ccnc2cccnc12 [compound 26]

solubility ([9]; pH 7.4): > 80 µM
Molecule: Cc1cccc(-c2nnc([C@H]3C[C@H](NC(=O)c4ccnc5cccnc45)C3)n2-c2ccccc2F)n1 [compound 30]

solubility ([9]; pH 7.4): > 80 µM
Molecule: Cc1cccc(-c2nnc([C@H]3C[C@H](NC(=O)c4ccnc5cc(F)cnc45)C3)n2-c2ccccc2F)n1 [compound 31]

solubility ([9]; pH 7.4): 14 µM (≈ 7.44 µg/mL)
Molecule: O=C(N[C@H]1C[C@H](c2nnc(-c3ccc(OC(F)F)cn3)n2-c2ccccc2F)C1)c1ccnc2cccnc12 [compound 34]

solubility ([9]; pH 7.4): 54 µM (≈ 29.7 µg/mL)
Molecule: O=C(N[C@H]1C[C@H](c2nnc(-c3ccc(OC(F)F)cn3)n2-c2ccccc2F)C1)c1ccnc2cc(F)cnc12 [compound 35]

Molecule: CN(C(=O)c1ccccn1)[C@H]1C[C@H](c2nnc(-c3ccncn3)n2-c2ccccc2Cl)C1 [compound 44]
activity in words [1]: inactive

Molecule: O=C(Cc1ccccc1)N[C@H]1C[C@H](c2nnc(-c3ccncn3)n2-c2ccccc2Cl)C1 [compound 52]
activity in words [1]: inactive

Molecule: O=C(N[C@H]1C[C@H](c2nnc(-c3ccncn3)n2-c2ccccc2Cl)C1)C1CCCCC1 [compound 53]
activity in words [1]: inactive

Molecule: CC(=O)N[C@H]1C[C@H](c2nnc(-c3ccncn3)n2-c2ccccc2Cl)C1 [compound 54]
activity in words [1]: inactive

Molecule: N#Cc1ccc2c(c1)[nH]c(=O)n2[C@H]1C[C@H](c2nnc(-c3ccncn3)n2-c2ccccc2C(F)(F)F)C1 [compound 66]
activity in words [1]: comparable activities to the previous lead 1

Molecule: N#Cc1ccc2c(c1)[nH]c(=O)n2[C@H]1C[C@@H](c2nnc(-c3ccncn3)n2-c2ccccc2Cl)C1 [compound 75]
potency in words [10]: decreased potency
